Experimental findings from US10328084B2, “Pyrrolobenzodiazepines and targeted conjugates” (priority 2011, dated 2019) are described below.

A word on the IC50: it is the midpoint of a concentration-inhibition curve.

Holding throughout (assay type): cell-based
One experiment deals with 786-O. Briefly: in vitro cytotoxic activity, resazurin reduction assay, 786-O. The note with it: Homo sapiens, 786-0, 48 h, read-out: IC50 in pM following 48 hours treatment, 786-O. The procedure: (§1) The in vitro cytotoxic activity of the selected antibody drug conjugate was assessed using a resazurin (Sigma, St. Louis, Mo., USA) reduction assay (reference: Doronina et al., Nature Biotechnology, 2003, 21, 778-784). The antibody drug conjugate was prepared as described above.
(§2) For the 96-hour assay, cells cultured in log-phase growth were seeded for 24 h in 96-well plates containing 150 μL RPMI 1640 supplemented with 20% FBS. Serial dilutions of ADC in cell culture media were prepared at 4× working concentration; 50 μL of each dilution was added to the 96-well plates. Following addition of ADC, the cells were incubated with test articles for 4 days at 37° C. Resazurin was then added to each well to achieve a 50 μM final concentration, and the plates were incubated for an additional 4 hours at 37° C. The plates were then read for the extent of dye reduction on a Fusion HT plate reader (Packard Instruments, Meridien, Conn., USA) with excitation and emission wavelengths of 530 and 590 nm, respectively. The IC50 value, determined in triplicate, is defined here as the concentration that results in a 50% reduction in cell growth relative to untreated controls.
(§3) Referring to the table below, the in vitro cytotoxicity of the ADC using the 96 hour assay is shown. […]
(In general: The colour change of resazurin is a common sign of viable cells or microbes.)

The subject of another experiment is Caki-1. Briefly: in vitro cytotoxic activity, resazurin reduction assay, Caki-1. Conditions: Homo sapiens, CAKI-1, 48 h, read-out: IC50 in pM following 48 hours treatment, Caki-1. As for the experimental part: as §1, §2, §3
The subject of a further experiment is HL60. Briefly: in vitro cytotoxic activity, HL60. Conditions: Homo sapiens, HL-60; HL60, 48 hours treatment, free PBD dimer; read-out: IC50 in pM following 48 hours treatment, HL60. The procedure:
as §1
as §2, with “For the 96-hour assay, cells cultured in log-phase growth were seeded for 24 h in 96-well plates containing 150 μL RPMI 1640 supplemented with 20% FBS.” left out, “Following addition of ADC, the cells were incubated with test articles for 4 days at 37° C.” left out

The next experiment relates to HEL9217. Briefly: in vitro cytotoxic activity, HEL9217. Conditions: Homo sapiens, HEL 92.1.7; HEL9217, 48 hours treatment, free PBD dimer; read-out: IC50 in pM following 48 hours treatment, HEL9217. As for the experimental part:
as §1
as §2, with “For the 96-hour assay, cells cultured in log-phase growth were seeded for 24 h in 96-well plates containing 150 μL RPMI 1640 supplemented with 20% FBS.” left out, “Following addition of ADC, the cells were incubated with test articles for 4 days at 37° C.” left out

In the case of `COCCOCCOCCOCCOc1ccc(C2=CN3C(=O)c4cc(OC)c(OCCCCCOc5cc6c(cc5OC)C(=O)N5C=C(c7ccc(N)cc7)C[C@@H]5C=N6)cc4N=C[C@H]3C2)cc1` [compound 23, (R)-2-(4-(2,5,8,11-tetraoxatridecan-13-yloxy)phenyl)-8-((5-(((R)-2-(4-aminophenyl)-7-methoxy-5-oxo-5,11a-dihydro-1H-benzo[e]pyrrolo[1,2-a][1,4]diazepin-8-yl)oxy)pentyl)oxy)-7-methoxy-1H-benzo[e]pyrrolo[1,2-a][1,4]diazepin-5(11aH)-one], the IC50 in the experiment on 786-O was determined as 100 pM; in the experiment on Caki-1 it was 100 pM; with HL60 it was 40 pM; in the experiment on HEL9217, 100 pM.
For `COc1cc2c(cc1OCCCCCOc1cc3c(cc1OC)C(=O)N1C=C(c4ccc(OCCCN(C)C)cc4)C[C@H]1C=N3)N=C[C@@H]1CC(c3ccc(N)cc3)=CN1C2=O` [compound 17, (S)-2-(4-aminophenyl)-8-((5-(((S)-2-(4-(3-(dimethylamino)propoxy)phenyl)-7-methoxy-5-oxo-5,11a-dihydro-1H-benzo[e]pyrrolo[1,2-a][1,4]diazepin-8-yl)oxy)pentyl)oxy)-7-methoxy-1H-benzo[e]pyrrolo[1,2-a][1,4]diazepin-5(11 aH)-one], the IC50 came to 7 pM in the experiment with 786-O, 2 pM in the experiment with Caki-1, 3 pM in the experiment on HL60 and 2 pM with HEL9217.
